Data published in patent US4816471A, “Substituted heterocyclic benzamides, methods of preparing them and their application as anti-emetics” (Societe d'Etudes Scientifiques et Industrielles de …, priority 1978, dated 1989).
Structures can show the parent of a compound that is named as a salt.

Tests used:
[1] = test system: chewing stereotypes induced by dexamphetamine; assay: antagonism to chewing stereotypes induced by dexamphetamine in rats, Janssen's method; assay type: in vivo; settings: Table 5, dexamphetamine 10 mg/kg; for ED50: Rattus norvegicus, sc; for % antagonism to chewing stereotypes induced by dexamphetamine: s.c., at 100 mg/kg
Experimental: The compounds were also tested for antagonism to chewing stereotypes induced by dexamphetamine (10 mg/kg) in rats, by Janssen's method in Arzn. Forsch. 1961, 11, 932-938 under subcutaneous administration with the following results: […]

[2] = test system: chewing stereotypes induced by apomorphine; assay: antagonism to chewing stereotypes induced by apomorphine in rats, method of Janssen; assay type: in vivo; settings: Table 4, apomorphine 1.25 mg/kg; for ED50: Rattus norvegicus, sc; for % antagonism to chewing stereotypes induced by apomorphine: s.c., at 200
Experimental: The neurological activity of the compounds of the invention was compared to the activity of prior art compounds in U.S. Pat. No. 4,172,143 and with a standard in this field, Sulpiride, N-[(1-ethylpyrrolidinyl-2)methyl]-2-methoxy-5 sulphamoyl benzamide. The compounds were tested for antagonism to chewing stereotypes induced by apomorphine (1.25 mg/kg in rats, according to the method of Janssen in Arzn. Forsch. 1960-10, 1003-5, under subcutaneous administration and the results were as follows: […]

[3] = test system: anti-emetic power relative to apomorphine in dogs; assay: anti-emetic power relative to apomorphine in dogs by the method of Chen and Ensor (subcutaneous administration); assay type: in vivo; settings: Canis lupus familiaris, sc, Table 1, s.c. 30 minutes before apomorphine 100 ug/kg s.c.
Experimental: (§1) The pharmacodynamic tests on the compounds of this invention, and particularly a study of their anti-emetic power have shown strong activity on the nervous system as apomorphine antagonists. […] In accordance with the above-mentioned procedures, the compounds of the invention were administered subcutaneously 30 minutes before the administration of apomorphine, which was administered subcutaneously in a dose of 100 ug/kg.

[4] = acute toxicity in the mouse; settings: in vivo
Description: The acute toxicity of the compounds of the invention has been studied in the mouse. The LD50 's are set out in the following Table 3. […] This characteristic is highly desirable because the possibility of toxic effects due to the administration of therapeutic doses is thereby minimized.

[5] = test system: biting sterotypes induced by apomorphine; assay: potentiation of biting sterotypes induced by apomorphine in mice, Pedeson's method; assay type: in vivo; settings: Table 6, apomorphine 10 mg/kg, interperitoneal; for ED50: Mus musculus, ip
Experimental: The compounds were also tested for potentiation of biting sterotypes induced by apomorphine (10 (mg/kg) in mice, under interperitoneal administration in accordance with Pedeson's method in Brit J. Pharmacol. 1968, 34 (1), 219-220 with the following results: […]

solubility in water = assay type: physicochemical; settings: crystals, base
[6] = test system: anti-emetic power relative to apomorphine in dogs; settings: cited from earlier work; for ED50 (Prior Art Compounds, Results Reported in U.S. Pat No. 4,172,143): Table 1, method of administration believed oral; for ED50 (oral): Table 2, prior art compounds, same values as reported in U.S. Pat. No. 4,172,143
[7] = test system: anti-emetic power relative to apomorphine in dogs; assay: anti-emetic ED50 under oral administration (procedure of Example 29); assay type: in vivo; settings: Canis lupus familiaris, Table 2
Experimental: as §1
Compounds SLC-036, 77205 and 77149 are disclosed in U.S. Pat. No. 4,172,143 for comparison purposes, as Examples 10, 33 and 37 therein. The results for those compounds are reported in Table IX of the '143 Patent and are believed to represent results from oral administration.
Pharmacological tests were carried out under oral administration to determine anti-emetic ED50 in accordance with the procedure of Example 29 with the following results: […]

[8] = test system: stereotypes induced by apomorphine; assay: potentiation of stereotypes induced by apomorphine in rats; assay type: in vivo; settings: Table 7, apomorphine 0.25 mg/kg, intraperitoneal
Experimental: The compound of Example 2 was tested against sulpiride for potentiation of stereotypes induced by apomorphine (0.25 mg/kg) in rats under intraperitoneal administration with the following results: […]

Row | SMILES | ED50 [1] | ED50 [2] | ED50 [3] | LD50 ([4]; I.V. (intravenous)) | LD50 ([4]; P.O. (oral)) | LD50 ([4]; ip, I.P. (intraperitoneal)) | LD50 ([4]; sc, S.C. (subcutaneous)) | also measured
1 | CCS(=O)(=O)c1cc(C(=O)NCC2CCCN2CC2=CCCCC2)c(OC)cc1N (centres unmarked) [Example 11, N-[1-(1-cyclohexenylmethyl)-2-pyrrolidinylmethyl]-2-methoxy 4-amino 5-ethylsulphonyl benzamide, phosphate] | 5.4 mg/kg | 13.7 mg/kg | 0.00057 mg/kg | 29.5 to 31.8 mg/kg | 510 to 555 mg/kg | 180 to 181 mg/kg | 343 to 360 mg/kg | 
2 | CNS(=O)(=O)c1cc(OC)c(OC)c(C(=O)NCC2CCCN2CC2=CCCCC2)c1 (centres unmarked) [Example 12, N-(1-cyclohexenylmethyl 2-pyrrolidinylmethyl) 2,3-dimethoxy 5-methylsulphamoyl benzamide] | 1.5 mg/kg | 4 mg/kg | 0.00115 mg/kg | 57.8 to 62 mg/kg | 540 to 560 mg/kg | 198 to 200 mg/kg | 297 to 319 mg/kg | ED50 [5]: 0.33 mg/kg
3 | CNS(=O)(=O)c1cc(OC)c(OC)c(C(=O)NCC2CCCN2CC2CC2)c1 (centres unmarked) [Example 5, N-(1-cyclopropylmethyl 2-pyrrolidinylmethyl)-2,3-dimethoxy 5-methylsulphamoyl benzamide] |  |  | 0.0005 mg/kg |  |  |  |  | 
4 | COc1cc(S(N)(=O)=O)cc(C(=O)NCC2CCCN2CC2CC2)c1OC (centres unmarked) [Example 4, N-(1-cyclopropylmethyl-2-pyrrolidinylmethyl)-2,3-dimethoxy-5-sulphamoyl benzamide] |  |  | 0.0022 mg/kg | 60 to 64.5 mg/kg | 2280 mg/kg | 372 to 403 mg/kg | 930 mg/kg | solubility in water (solubility in water): insoluble
5 | CNS(=O)(=O)c1ccc(OC)c(C(=O)NCC2CCCN2CC2=CCCCCC2)c1 (centres unmarked) [Example 13, N-(1-cycloheptenylmethyl 2-pyrrolidinylmethyl) 2-methoxy 5-methylsulphamoylbenzamide] | 0.54 mg/kg | 1.5 mg/kg | 0.0005 mg/kg | 45.5 to 48 mg/kg | 312 to 330 mg/kg | 128 to 140 mg/kg | 322 to 336 mg/kg | 
6 | COc1ccc(S(N)(=O)=O)cc1C(=O)NCC1CCCN1CC1CC1 (centres unmarked) [SLC-036, N--(1cyclopropylmethyl 2pyrrolidinylmethyl)-2-methoxy-5-sulphamoyl benzamide, reference compound] |  |  |  |  |  |  |  | % antagonism to chewing stereotypes induced by dexamphetamine [1]: 0%; ED50 (Prior Art Compounds, Results Reported in U.S. Pat No. 4,172,143) [6]: 0.037 mg/kg; ED50 (oral) [6]: 0.037 mg/kg; % antagonism to chewing stereotypes induced by apomorphine [2]: 0%
7 | COc1cc(S(N)(=O)=O)cc(C(=O)NCC2CCCN2CC2=CCCCC2)c1OC (centres unmarked) [Example 6, N-(1-cyclohexenyl-methyl-2-pyrrolidylmethyl)-2,3-dimethoxy 5-sulphamoyl benzamide] |  | 40 mg/kg | 0.0028 mg/kg |  |  |  |  | ED50 [5]: 2.6 mg/kg; mortality ([4]; ip, I.P., at 240 mg/kg, read-out: 60% at 240 mg/kg (acute toxicity)): 60%
8 | CC[S+]([O-])c1cc(C(=O)NCC2CCCN2CC2CC2)c(OC)cc1N (centres unmarked) [Example 1, N-(1-cyclopropylmethyl 2-pyrrolidinylmethyl)-2-methoxy 4-amino 5-ethylsulphinyl benzamide] |  |  | 0.0007 mg/kg |  |  |  |  | 
9 | CNS(=O)(=O)c1cc(C(=O)NCC2CCCN2CC2CC2)c(OC)cc1N (centres unmarked) [Example 3, N-(1-cyclopropylmethyl 2-pyrrolidinylmethyl)-2-methoxy 4-amino 5-methylsulphamoyl benzamide] |  |  | 0.0004 mg/kg |  |  |  |  | 
10 | COc1ccc(S(=O)(=O)N(C)C)cc1C(=O)NCC1CCCN1CC1CC1 (centres unmarked) [Example 77149, N--(1cyclopropylmethyl 2pyrrolidinylmethyl)-2-methoxy-5-dimethylsulphamoyl benzamide] |  |  |  |  |  |  |  | ED50 (Prior Art Compounds, Results Reported in U.S. Pat No. 4,172,143) [6]: 0.04 mg/kg; ED50 (oral) [6]: 0.04 mg/kg
11 | CCS(=O)(=O)c1cc(C(=O)NCC2CCCN2CC2CCCCC2)c(OC)cc1N (centres unmarked) [Example 8, N-(1-cyclohexylmethyl-2-pyrrolidinyl-methyl)-2-methoxy-4-amino-5-ethylsulphonyl-benzamide] | 15.4 mg/kg | 33 mg/kg | 0.002 mg/kg | 37 to 40.8 mg/kg | 348 to 380 mg/kg | 133 to 145 mg/kg | 336 to 342 mg/kg | 
12 | CCS(=O)(=O)c1cc(C(=O)NCC2CCCN2CC2CC2)c(OC)cc1N (centres unmarked) [Example 2, N-(1-cyclopropyl-methyl-2-pyrrolidinyl-methyl)-2-methoxy-4-amino-5-ethylsulphonyl-benzamide] |  |  | 0.0004 mg/kg | 52.5 to 54.6 mg/kg | 1260 to 1320 mg/kg | 204 to 220 mg/kg | 380 to 396 mg/kg | ED50 [7]: 0.0009 mg/kg; ED50 ([8]; Rattus norvegicus, ip): 2.4 mg/kg; ED50 [5]: 1.6 mg/kg
13 | COc1cc2[nH]nnc2cc1C(=O)NCC1CCCN1CC1=CCCCC1 (centres unmarked) [Example 22, N-(1-cyclohexenylmethyl 2-pyrrolidinylmethyl) 2-methoxy 4,5-azimido benzamide] |  |  | 0.002 mg/kg |  |  |  |  | 
14 | COc1ccc(S(N)(=O)=O)cc1C(=O)NCC1CCCN1CC1=CCCCC1 (centres unmarked) [Example 14, N-[1(1-cyclohexenylmethyl) 2-pyrrolidinylmethyl]2-methoxy 5-sulphamoyl benzamide] | 10 mg/kg | 16.4 mg/kg | 0.00085 mg/kg | 82.5 to 85.5 mg/kg | 525 to 542 mg/kg | 294 to 317 mg/kg | 630 to 640 mg/kg | ED50 [7]: 0.0012 mg/kg
15 | CCS(=O)(=O)c1cc(C(=O)NCC2CCCN2CC2=CCCC2)c(OC)cc1N (centres unmarked) [Example 10, N-(1-cyclopentenylmethyl 2-pyrrolidinylmethyl)-2-methoxy 4-amino 5-ethylsulphonyl benzamide] | 14 mg/kg |  | 0.0013 mg/kg | 41.8 to 42 mg/kg | 980 to 990 mg/kg | 204 to 212 mg/kg | 330 to 360 mg/kg | 
16 | CCS(=O)(=O)c1cc(OC)c(OC)c(C(=O)NCC2CCCN2CC2CC2)c1 (centres unmarked) [Example 16, N-(1-cyclopropylmethyl 2-pyrrolidinylmethyl) 2,3-dimethoxy 5-ethylsulphonylbenzamide, hydrochloride] | 1.34 mg/kg | 3.2 mg/kg |  | 92.9 to 97.2 mg/kg | 588 to 598 mg/kg | 303 to 338 mg/kg | 595 to 597 mg/kg | ED50 [7]: 0.00023 mg/kg; ED50 [5]: 0.25 mg/kg
17 | CCN1CCCC1CNC(=O)c1cc(S(N)(=O)=O)ccc1OC (centres unmarked) [Sulpiride, N-[(1-ethylpyrrolidinyl-2)methyl]-2-methoxy-5 sulphamoyl benzamide, reference compound] |  |  |  |  |  |  |  | % antagonism to chewing stereotypes induced by dexamphetamine [1]: 0%; % potentiation of stereotypes induced by apomorphine ([8]; at 8 mg/kg): 30%; % potentiation of biting sterotypes induced by apomorphine ([5]; at 4 mg/kg): 12%; % antagonism to chewing stereotypes induced by apomorphine [2]: 0%
18 | COc1ccc(S(N)(=O)=O)cc1C(=O)NCC1CCCN1CC1CCCCC1 (centres unmarked) [Example 77205, N--(1cyclohexylmethyl 2pyrrolidinylmethyl)-2-methoxy-5-sulphamoyl benzamide, reference compound] | 19 mg/kg |  |  |  |  |  |  | ED50 (Prior Art Compounds, Results Reported in U.S. Pat No. 4,172,143) [6]: 0.014 mg/kg; ED50 (oral) [6]: 0.014 mg/kg; % antagonism to chewing stereotypes induced by apomorphine [2]: 20%
19 | CNS(=O)(=O)c1ccc(OC)c(C(=O)NCC2CCCN2CC2=CCCCC2)c1 (centres unmarked) [Example 15, N-(1-cyclohexenylmethyl 2-pyrrolidinylmethyl) 2-methoxy 5-methylsulphamoyl benzamide] | 0.78 mg/kg | 1.22 mg/kg | 0.00021 mg/kg | 44.2 to 46.5 mg/kg | 540 to 558 mg/kg | 204 to 208 mg/kg | 462 to 494 mg/kg | ED50 [7]: 0.0011 mg/kg
